Tests used:
hTRPM8 channel = biological target: T1, hTRPM8 channel (Homo sapiens, UniProt Q7Z2W7); test: TRPM8 receptor assay, calcium entry (Fluo-8, FLIPR) in transfected CHO cells; type: cell-based; settings: for EC50: CHO cells transfected with hTRPM8, Fluo-8 calcium kit, FLIPR; for Potency Relative to L-menthol: ratio of TRPM8 EC50 values, menthol = 1.0
T1 construct: host or cells: CHO cells
From the text: FIG. 4. Agonist activities of TRPM8 analogs. […] The relative fluorescence (RF) unit on the ordinate represents calcium entry into transfected cells. […] The structures of these compounds are in Table 4.
The applicant has synthesized and examined a series of p-menthanecarboxamides conjugated to amino acid esters. […] This class of molecules is called N-alkylcarbonyl-amino acid esters. GlyOiPr is a p-menthanecarboxamide conjugate of glycine isopropyl (iPr) ester. It is similar in structure to WS-5, a cooling agent used as a food additive. WS-5 is the p-menthane-glycine ethyl (Et) ester, or GlyOEt. […] These in vitro effects were measured in CHO cells transfected with the hTRPM8 channel. Receptor activity was quantified using a Fluo-8 calcium kit and a Fluorescence Imaging Plate Reader ([…]™).

philtrum skin = test: Cooling duration bioassay on philtrum skin; type: in vivo, human
From the text: (§1) FIG. 1. Comparison of cooling duration of various p-menthanecarboxamide analogs on philtrum skin versus ocular margins. The philtrum skin is keratinized, but the ocular margins are not. The test substances numbered 1 to 11 are: D-Ala-OiPr, Gly-OiPr, D-Ala-OEt, D-Ala-OMe, D-Ala-GlynPr, GlynPr, D-Ala-OnBu, GlynBu, GlyOEt, L-Ala-OEt, and N-Me-D-Ala-OEt, respectively. Two outliers (1 and 2) were identified as preferred embodiments because they preferentially cool the ocular margins. The nasal cavity surfaces like the ocular margins are not keratinized.
(§2) Cooling agents have been assayed in various ways depending on intended use. For example, for the skin the test substance can be applied on philtrum skin, using descriptions of coolness on a scale of 0 to 3. For the ocular surface, the active ingredient can be applied to the closed eyelids using a wipe. In the oral cavity, drug applications are on the posterior dorsal surface of the tongue. For the oropharyngeal surface, the cooling agent may be applied as an orally disintegrating tablet. The ability of a cooling agent to antagonize a noxious stimuli may also be tested, using nociception from citric acid or chili pepper sauce. Responses are usually measured using a Visual Analog Scale with a numerical rating. For nasal responses, however, such procedures have not been standardized. Some endpoints to consider are open and comfortable breathing, the presence or absence of sniffles, and the secretion of phlegm.

ocular margins = test: Cooling duration bioassay on eyelids/ocular margins; type: in vivo, human; settings: for Eyelids/Ocular Surface: Table 6, cooling duration, non-keratinized
From the text: as §1, §2

nasal cavity = test: Nebulizer screening of TRPM8 agonists for sensations in the nasal cavity; type: in vivo, human; settings: NasoNeb nebulizer; for Sensory effects after delivery into the nasal cavity: 3 to 5 sec per nostril
Method: Formulations for nebulization with NasoNeb® used a standard recipe of (Table 8): 1% of the active ingredient (1 to 10 mg/mL), 2% Tween 80 (Polysorbate 80), 1 to 5% ethanol, and made up to 100% with water. The mixture is centrifuged in a FlackTek, Inc., Speedmixer for at least 10 min at 3000 rpm. The Speedmixer spins the sample in 3 dimensions. The result is a white homogeneous liquid suspension with some of the solids now dissolved. For dosing, ˜2 to 3 mL is loaded into the canister of the nebulizer. The nebulizer nozzle tip is placed in the nostril and activated by pressing a button for 3 to 5 sec using a clock timer. […] For D-Ala-OiPr a 5-sec activation will deliver 2*0.73 mL*2 mg/ml, or a total dose of 3 mg per nose. The nasal cavity is relatively tolerant to exogenous agents with irritant properties, as many rinses are used for rhinitis and sinusitis. For some p-menthanecarboxamide analogs, a 2% (20 mg/mL) solution is possible and contemplated. An ideal agent reproduces a comfortable cooling or sensations of negative heat flux in the nasal cavity. […] Heat flux refers to the rate of heat transfer per unit area. The sinonasal cavity mucosa differs from philtrum skin and ocular margins in histology, so the choice of the right molecule must be made by experiment. The TRPM8 agonists were chosen for screening using a nebulizer for delivery. The NasoNeb system is powerful and effective for the OMC (FIG. 3). The delivery time per nostril in three to five seconds. […] These parameters were estimated in the initial trials: • Onset and offset of cooling sensations in the nasal cavity. • The intensity and quality of the cooling sensations in the nasal cavity. • Presence of effects such as sneezing or cough after dosing. • Degree of nasal stuffiness on a scale of 0 to 5. • Degree of rhinorrhea and phlegm in nasal secretions. • Questions regarding comfort and sleep at night.

oral cavity = test: Chili-pepper sauce test (oral cavity); type: in vivo, human; parameters: scale not given here; settings: Table 6; grades 0, +, ++ without key
From the text: as §2

ostiomeatal complex = test: Case studies: nebulized cooling agent in subjects with rhinitis and rhinosinusitis; type: in vivo, human; settings: NasoNeb delivery in subjects with rhinosinusitis
From the text: Eight subjects with rhinitis and rhinosinusitis volunteered to test cooling agents delivered with the NasoNeb® nebulizer (FIG. 3). The results were clear, robust, and evident. No statistical analysis was necessary. In a 3 to 5-day course of nebulization t.i.d., all subjects reported the ability to manage and control stuffed-up breathing in their activities. All reported comfortable sleep. The sounds of sniffling and congestion of the nose (“sniffles”), snorting, or gurgling were still present, but to a lesser degree. The subject felt it was easier to blow out liquids from the nasal cavity onto a tissue, and the volume and frequency of blowing decreased. Viscous yellow mucus was less in volume and density. The number of wipes deposited daily into a waste basket decreased by >50%. The subjects-were cheerful and enthusiastic because nasal discomfort was under control. As one subject remarked: “The stuffed-up nose problem is now history!” Severat of these cases are reported below as “Case Studies.”
The subject was given a NasoNeb® nebulizer (unavailable in China) and five individual bottles containing 15 mL of a 1% GlyOiPr solution (suspended in 2% Tween 80, 5% ethanol, and 92% water). They were shown how to load the NasoNeb canister with about 2 mL of liquid and activate the device for a 3-second dose into each nostril. The recommended dosage was three times a day, starting in the morning and at about 6-hour intervals, and for five days.
The subject agreed to using the NasoNeb nebulizer with a cooling agent. They were given a NasoNeb nebulizer and three bottles, each containing 15 ml of a 1% GlyOiPr solution (suspended in 2% Tween 80, 5% ethanol, and 92% water). They were shown how to load the NasoNeb canister with about 2 mL of liquid and activate the device for a 3-second dose into each nostril. The recommended dosage was three times a day, starting in the morning and at about 6-hour intervals, and for five days. After a 5-day trial, the subject noted a significant improvement in sleep and comfortable breathing. […] Their headaches were gone, and their appetite improved. They were advised to continue using the Nebulizer/coolant for another week and then on an as-needed basis. Their family has noticed that the subject has become less withdrawn, more engaging, and interested in their surroundings.
The subject volunteered for a trial with GlyOiPr. They were given a NasoNeb® machine and a plastic squeeze bottle containing 50 mL of GlyOiPr at 3 mg/mL suspended in 1% ethanol/2% polysorbate 80. They learned how to load the canister and activate the pump. Then, they were instructed to rinse their nose thoroughly first thing in the morning and then use the Nebulizer at 5 sec per nostril to deliver the solution. The procedure was to be repeated at 2 hours and 5 hours later to total three daily activations. The subject was interviewed after dosing for three days. They said breathing was much easier at night after the dosing, and they slept well. Nasal secretions were still present but less in volume. […] They were encouraged to use the Nebulizer as needed but not to exceed three daily doses. Three weeks after the start of the experiment, they reported that they were in complete control of their rhinitis. They would do a single dose at night before sleep and one in the morning when needed. They no longer felt congested, and the headaches were gone. The slimy phlegm in the nostrils was gone, and crusting was absent. Their nose felt clean. Their social life improved.
Their main complaint was episodes at night when they would wake up and not be able to breathe comfortably. Sleep apnea and lung disorders were ruled out, and the diagnosis was rhinosinusitis. This was confirmed by a computerized tomography scan and endoscopic examination by a qualified ENT specialist. They agreed to test the preferred embodiments GlyOnPr, GlyOiPr, D-Ala-OnPr, and D-Ala-OiPr systematically, one after the other.

[1] = Table 6, cooling duration, keratinized skin

T1 sequence (Q7Z2W7 whole entry): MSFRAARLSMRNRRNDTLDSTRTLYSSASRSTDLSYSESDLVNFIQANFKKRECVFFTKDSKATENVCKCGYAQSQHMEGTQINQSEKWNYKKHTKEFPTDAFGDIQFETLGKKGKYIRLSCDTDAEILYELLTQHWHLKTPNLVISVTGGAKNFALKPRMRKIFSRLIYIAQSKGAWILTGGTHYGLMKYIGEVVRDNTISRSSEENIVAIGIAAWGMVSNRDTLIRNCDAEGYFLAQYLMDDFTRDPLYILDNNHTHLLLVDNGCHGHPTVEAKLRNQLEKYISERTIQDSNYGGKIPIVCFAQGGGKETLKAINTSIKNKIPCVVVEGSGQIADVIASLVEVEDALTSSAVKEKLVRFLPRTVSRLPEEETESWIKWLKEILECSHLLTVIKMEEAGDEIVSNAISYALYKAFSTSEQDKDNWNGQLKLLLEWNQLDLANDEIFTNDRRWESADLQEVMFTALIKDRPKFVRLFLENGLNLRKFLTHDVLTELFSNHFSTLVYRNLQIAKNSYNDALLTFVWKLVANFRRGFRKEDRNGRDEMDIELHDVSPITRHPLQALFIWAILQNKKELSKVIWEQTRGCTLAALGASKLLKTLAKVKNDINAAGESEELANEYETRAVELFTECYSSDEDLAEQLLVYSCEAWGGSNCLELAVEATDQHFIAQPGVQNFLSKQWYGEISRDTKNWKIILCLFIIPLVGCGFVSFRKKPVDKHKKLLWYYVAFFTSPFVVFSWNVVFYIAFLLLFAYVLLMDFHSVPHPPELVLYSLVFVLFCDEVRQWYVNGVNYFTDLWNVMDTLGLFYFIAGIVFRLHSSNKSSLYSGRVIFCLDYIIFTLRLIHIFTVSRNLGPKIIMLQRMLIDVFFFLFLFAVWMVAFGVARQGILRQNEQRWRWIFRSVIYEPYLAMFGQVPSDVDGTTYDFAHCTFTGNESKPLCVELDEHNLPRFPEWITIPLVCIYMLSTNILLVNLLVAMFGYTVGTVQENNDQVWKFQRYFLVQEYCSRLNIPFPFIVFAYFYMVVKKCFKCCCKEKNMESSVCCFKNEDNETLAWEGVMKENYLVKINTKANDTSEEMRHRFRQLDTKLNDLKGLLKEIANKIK

Row | Compound | EC50 (hTRPM8 channel) [nM] | Potency Relative to L-menthol (hTRPM8 channel) | Philtrum Skin (philtrum skin; [1]) [min] | Eyelids/Ocular Surface (ocular margins) [min] | Cooling duration in the nasal cavity (nasal cavity) [min] | Sensory effects after delivery into the nasal cavity (nasal cavity) | Chili-Pepper Sauce Test (oral cavity) | Relief of stuffiness and breathing (ostiomeatal complex) | Philtrum Skin (philtrum skin; Table 7, Gly esters) [min] | Ocular Surface (ocular margins; Table 7, Gly esters) [min]
1 | CCOC(=O)[C@@H](C)NC(=O)[C@@H]1C[C@H](C)CC[C@H]1C(C)C [D-Ala-OEt, (R)-2-[((1R,2S,5R)-2-isopropyl-5-methyl-cyclohexanecarbonyl)-amino]-propionic acid ethyl ester] | 270 | 14.0 | 103 | 180 | ~15 | Bitter taste, causes coughing | – | – | – | –
2 | COC(=O)C(C)NC(=O)[C@@H]1C[C@H](C)CC[C@H]1C(C)C (stereo partly drawn) [D-Ala-OMe] | 590 | 6.4 | 77 | 120 | – | – | – | – | – | –
3 | CCCCOC(=O)C(C)NC(=O)[C@@H]1C[C@H](C)CC[C@H]1C(C)C (stereo partly drawn) [D-Ala-OnBu] | 1030 | 3.7 | 80 | 40 | – | – | 0 | – | – | –
4 | CCCOC(=O)[C@@H](C)NC(=O)[C@@H]1C[C@H](C)CC[C@H]1C(C)C [D-Ala-OnPr, (R)-2-[((1R,2S,5R)-2-isopropyl-5-methyl-cyclohexanecarbonyl)-amino]-propionic acid n-propyl ester] | – | – | 108 | 65 | – | Strong penetrating cool at 3 mg/mL. Excellent for viral ARS. | – | provided relief | – | –
5 | CC(C)[C@@H]1CC[C@@H](C)C[C@H]1C(=O)NCCc1ccccn1 [FEMA 4549, (1R,2S,5R)-N-(2-(pyridin-2-yl)ethyl)-3-p-menthanecarboxamide, reference compound] | – | – | – | – | – | Although potent on TRPM8 receptor, slow onset and absence of refreshing cooling. | – | – | – | –
6 | COC(=O)CNC(=O)[C@@H]1C[C@H](C)CC[C@H]1C(C)C [GlyOMe] | 500 | 7.6 | – | – | – | – | – | – | 10 | 5
7 | CCOC(=O)[C@H](C)NC(=O)[C@@H]1C[C@H](C)CC[C@H]1C(C)C [L-Ala-OEt, (S)-2-[((1R,2S,5R)-2-isopropyl-5-methyl-cyclohexanecarbonyl)-amino]-propionic acid ethyl ester] | 24000 | 0.2 | 34 | 0 | – | Very little cooling, low potency on TRPM8, good only as negative control. | 0 | – | – | –
8 | CCOC(=O)C(C)NC(=O)[C@@H]1C[C@H](C)CC[C@H]1C(C)C (stereo partly drawn) [L-Ala-OiPr] | – | – | 27 | 15 | – | – | 0 | – | – | –
9 | CCOC(=O)C(C)NC(=O)[C@@H]1C[C@H](C)CC[C@H]1C(C)C (stereo partly drawn) [L-Ala-OnBu] | – | – | 0 | 0 | – | – | 0 | – | – | –
10 | CCOC(=O)C(C)NC(=O)[C@@H]1C[C@H](C)CC[C@H]1C(C)C (stereo partly drawn) [L-Ala-OnPr] | – | – | 22 | 10 | – | – | 0 | – | – | –
11 | O=C1NC(c2cccc([N+](=O)[O-])c2)=CCN1c1ccccc1O [icilin, 1-[2-hydroxy]-4-[3-nitrophenyl]-1,2,3,6-tetrahydropyrimidine-2-one, reference compound] | – | – | – | – | – | Difficult to form a homogeneous suspension, causes systemic cooling at higher doses | – | – | – | –

From patent publication US20250288583A1, “Treatment of Mucus Hypersecretion” (priority 2024, published 2025)
